Assay results reported in US7169785B2, “Methods and compositions of novel triazine compounds” (Reddy US Therapeutics, Inc., priority 2001, dated 2007).
pIC50: −log10 of the molar value. Read-outs that look alike come from different tables or passages of the source.

How the values were obtained:
[1] = test system: IL6; assay: Inflammation Data of Table 8: IL6 production compared to cells that did not receive compound (stimulus AGE or TNF not given); type: cell-based
Excerpt: Additional bioactivity data for compounds of the present invention are presented in Table 8, where compounds that have at least the activity of effecting cellular proliferation or at least the activity of modulating inflammation activity, as measured by the assays taught herein, are provided. […] The inclusion of compounds in the categories of the Tables disclosed herein, including this Table, is not to be seen as limiting, in that compounds included in such Tables have at least the activity shown for inclusion in the Table and may have more or other activities. Nor are the Tables to be seen as limiting in that these are the only compounds disclosed herein that have that activity, representative compounds are shown in the Tables that have at least that particular activity for inclusion in the Table. One or more compounds disclosed herein have at least an activity that has utility in treatment of disease states. Note that any hydrogen atoms that are required for any atom to attain its usual valence in a structure presented in Table 8, whether a carbon atom or a heteroatom, should be inferred if it is not specifically indicated.

[2] = test system: Human aortic smooth muscle cells; assay: Smooth muscle cell proliferation assay (anti-proliferation assay, perlecan); type: cell-based; settings: concentration not given
[3] = test system: cells; assay: Cytotoxicity / lactate dehydrogenase assay and visual observation of cells; type: cell-based
Description: Assays for determining the activity of compounds capable of cytotoxic activity include those taught in herein and others that are well known in the art. In general, to determine if there is cytotoxic activity associated with a compound, cells of a particular type, in a growing stage or a quiescient stage, are treated with the compound of interest. Various parameters of cell death or cessation are used to measure the effects of the compound. For example, the amount of nucleic acid or protein synthesis can be measured or visual observation of the state of the cells, such as release from the substrate, can be used to measure the state of the cells.
An appropriate number of cells are plated in four 96-well plates, one plate for “day 0” and three plates for days 1–3. Cells are treated with at least one compound of the present invention in varying concentrations with and without the apoptosis inducer cisplatin (2 μM) (“+cis” or “−cis”). Unteated cells are also assayed with and without cisplatin. After transfection, the plates are incubated at 37° C. overnight.
An appropriate number of cells are plated in four 96-well plates, one plate for “day 0” and three plates for days 1–3. Cells are treated with at least one compound of the present invention in varying concentrations. The negative control cells have normal media conditions, a duplicate set of wells is treated with the composition in which the compound is provided, but there is no added compound and the positive control cells are treated with the apoptosis inducer cisplatin (2 μM). All of the cells are transfected with a vector having a promoter that is responsive to apoptosis conditions. When apoptosis occurs, the promoter is turned on and the lactic dehydrogenase gene is activated and the enzyme protein is made and active. Activity is easily detected with a color change. After transfection, the plates are incubated at 37° C. overnight.
About 8 mls of warmed alpha MEM LDH lysis buffer (2% Triton X100) and about 8 mls of culture media (½ dilution) are combined. Two 96-well v-bottom plates are prepared, one labeled “lysis” and one labeled “supernatant.” To lyse the cells, about 200 μl Alpha MEM lysis buffer (diluted ½) is added to one test plate from which the supernatant has been removed and added to the plate labeled supernatant. After mixing, about 200 μl of lysed cells are transferred to the lysis plate. Both the lysis and supernatant plates are centrifuged at about 1600 rpm for about 10 min. After centrifugation, about 100 μl of both the supernatant or lysate is transferred to corresponding 96-well flat-bottomed plates.
The assay for cytotoxicity uses the Cytotoxicity Detection Kit (LDH) from Roche Diagnostics Corp. (Indianapolis, Ind.). Using the directionts provided, the dye solution is mixed and added each well of the lysate and supernatant plate and incubated for up to 20–25 min at 15–25° C. in the dark.

[4] = test system: IL-6; assay: AGE (G-HSA)-induced inflammatory response determined by IL-6 ELISA in HAEC; type: cell-based, human; settings: Homo sapiens; for activity at 10 µM: 24 h, Compds tested @ 10 uM, IL6, read-out: % IL6 production compare to AGE stimulation of IL6 (100%)
Description: Human aortic endothelial cells (HAEC, Clonetics) were cultured according to manufacturer in growth medium (Clonetics): basal medium containing human epidermal growth factor, hydrocortisone, vascular endothelial growth factor, heparin binding growth factor-B, long R3-insulin-like growth factor-1, ascorbic acid, gentamicin/amphotericin and 5% FBS. These cell were allowed to reach at least 90% confluency before subjected to experimental treatments. […] Tumor necrosis factor α was from R&D Systems.
All treatments, compound-added and controls were carried out in serum free media containing 0.2% albumin. Media from all conditions were collected and used for IL-6 ELISA.
IL-6 ELISA was carried out using human IL-6 DuoSet ELISA development kit as described by manufacturer (R&D Systems). Mouse anti-human Il-6 was used as the capture antibody (2 ug/ml) and biotinylated goat anti-human IL-6 (200 ng/ml) was used as the detection antibody. Culture media were incubated with capture antibody (in 96 well) for 2 h at room temperature. Wells were washed three times with wash buffer (0.05% tween-20 in phosphate buffered saline (PBS) pH 7.4) followed by incubation with detection antibody for 2 h at room temperature. Following three washes wells were incubated with Streptavidin-HRP for 20 min. Color development was read at 450 nm in a Microplate reader.

[5] = test system: IL-6; assay: TNF-α-induced IL-6 production determined by IL-6 ELISA in HAEC; type: cell-based, human; settings: Homo sapiens, 24 h; Compds tested @ 10 uM; HAEC, IL6; read-out: % IL6 production compare to TNF stimulation of IL6 (100%)

COc1ccc(Nc2nc(NC3CCCCCC3)nc(OCCOc3ccccc3F)n2)cc1Cl
Inflammation Data (result in words) ([1]; concentration not given): Not active | Proliferation Data (result in words) [2]: Not active

COc1ccc(Nc2nc(NC3CCCCCC3)nc(OCc3cccc(C)n3)n2)cc1Cl
inhibition at 10 µM [1]: 60% | Proliferation Data (result in words) [2]: Not active

Oc1ccc(Nc2nc(Cl)nc(Cl)n2)cc1Cl
inhibition at 10 µM [1]: 35% | Proliferation Data (result in words) [2]: Not active

Oc1ccc(Nc2nc(Cl)nc(NC3CCCCCC3)n2)cc1Cl
inhibition at 5 µM [1]: 25% | inhibition at 10 µM [1]: 25% | Proliferation Data (result in words) [2]: Not active

COc1ccc(Nc2nc(Cl)nc(NC3CC3)n2)cc1F
inhibition at 10 µM [1]: 36% | Proliferation Data (result in words) [2]: Not active

COc1ccc(Nc2nc(NC3CC3)nc(N(C)C3CCN(C)CC3)n2)cc1F
inhibition at 10 µM [1]: 25% | Proliferation Data (result in words) [2]: Not active

CCN1CCCC1CNc1nc(Nc2ccc(OC)c(F)c2)nc(NC2CC2)n1 (stereo not drawn)
inhibition at 10 µM [1]: 23% | Proliferation Data (result in words) [2]: Not active

CCN1CCCC1CNc1nc(Nc2ccc(OC)c(F)c2)nc(Nc2ccc(OC)c(F)c2)n1 (stereo not drawn)
inhibition at 5 µM [1]: 25% | inhibition at 10 µM [1]: 35%

CCN1CCCC1CNc1nc(Nc2cnc3ccccc3c2)nc(NC2CCCCCC2)n1 (stereo not drawn) [Compound 3, N^2-cycloheptyl-N^4-[(1-ethyl-2-pyrrolidinyl)methyl]-N^6-(3-quinolinyl)-1,3,5-triazine-2,4,6-triamine]
Toxicity ([3]; toxic or cause cell death): toxic | activity at 10 µM [4]: 1%

CCN1CCCC1CNc1nc(Nc2cccc3cccnc23)nc(NC2CCCCCC2)n1 (stereo not drawn) [Compound 5, N^2-cycloheptyl-N^4-[(1-ethyl-2-pyrrolidinyl)methyl]-N^6-(8-quinolinyl)-1,3,5-triazine-2,4,6-triamine]
Toxicity ([3]; toxic or cause cell death): toxic

CCN1CCCC1CNc1nc(Nc2ccc(Cl)c(Cl)c2)nc(NC2CCCCCC2)n1 (stereo not drawn) [Compound 7, N^2-cycloheptyl-N^4-(3,4-dichlorophenyl)-N^6-[(1-ethyl-2-pyrrolidinyl)methyl]-1,3,5-triazine-2,4,6-triamine]
Toxicity ([3]; toxic or cause cell death): toxic

CCN1CCCC1CNc1nc(Nc2ccc(F)c(F)c2)nc(NC2CCCCCC2)n1 (stereo not drawn) [Compound 8, N^2-cycloheptyl-N^4-(3,4-difluorophenyl)-N^6-[(1-ethyl-2-pyrrolidinyl)methyl]-1,3,5-triazine-2,4,6-triamine]
Toxicity ([3]; toxic or cause cell death): toxic

CCN1CCCC1CNc1nc(Nc2ccc(OC(F)(F)F)cc2)nc(NC2CCCCCC2)n1 (stereo not drawn) [Compound 9, N^2-cycloheptyl-N^4-[(1-ethyl-2-pyrrolidinyl)methyl]-N^6-[4-(trifluoromethoxy)phenyl]-1,3,5-triazine-2,4,6-triamine]
Toxicity ([3]; toxic or cause cell death): toxic

CCN1CCCC1CNc1nc(Nc2ccc(Cl)cc2)nc(NC2CCCCCC2)n1 (stereo not drawn) [Compound 12, N^2-(4-chlorophenyl)-N^4-cycloheptyl-N^6-[(1-ethyl-2-pyrrolidinyl)methyl]-1,3,5-triazine-2,4,6-triamine]
Toxicity ([3]; toxic or cause cell death): toxic

CCN1CCCC1CNc1nc(Nc2ccc(Br)cc2)nc(NC2CCCCCC2)n1 (stereo not drawn) [Compound 13, N^2-(4-bromophenyl)-N^4-cycloheptyl-N^6-[(1-ethyl-2-pyrrolidinyl)methyl]-1,3,5-triazine-2,4,6-triamine]
Toxicity ([3]; toxic or cause cell death): toxic

CCOC(=O)c1ccc(Nc2nc(NCC3CCCN3CC)nc(NC3CCCCCC3)n2)cc1 (stereo not drawn) [Compound 14, Ethyl 4-[(4-(cycloheptylamino)-6-{[(1-ethyl-2-pyrrolidinyl)methyl]amino}-1,3,5-triazin-2-yl)-amino]benzoate]
Toxicity ([3]; toxic or cause cell death): toxic

CCN1CCCC1CNc1nc(Nc2cccc(F)c2)nc(NC2CCCCCC2)n1 (stereo not drawn) [Compound 16, N^2-cycloheptyl-N^4-[(1-ethyl-2-pyrrolidinyl)methyl]-N^6-(3-fluorophenyl)-1,3,5-triazine-2,4,6-triamine]
Toxicity ([3]; toxic or cause cell death): toxic

CCN1CCCC1CNc1nc(Nc2ccccc2Cl)nc(NC2CCCCCC2)n1 (stereo not drawn) [Compound 21, N^2-(2-chlorophenyl)-N^4-cycloheptyl-N^6-[(1-ethyl-2-pyrrolidinyl)methyl]-1,3,5-triazine-2,4,6-triamine]
Toxicity ([3]; toxic or cause cell death): toxic

CCN1CCCC1CNc1nc(Nc2ccccc2Br)nc(NC2CCCCCC2)n1 (stereo not drawn) [Compound 22, N^2-(2-bromophenyl)-N^4-cycloheptyl-N^6-[(1-ethyl-2-pyrrolidinyl)methyl]-1,3,5-triazine-2,4,6-triamine]
Toxicity ([3]; toxic or cause cell death): toxic

CCN1CCCC1CNc1nc(Nc2ccc(Oc3ccccc3)cc2)nc(NC2CCCCCC2)n1 (stereo not drawn) [Compound 36, N^2-cycloheptyl-N^4-[(1-ethyl-2-pyrrolidinyl)methyl]-N^6-(4-phenoxyphenyl)-1,3,5-triazine-2,4,6-triamine]
Toxicity ([3]; toxic or cause cell death): toxic

CCN1CCCC1CNc1nc(NC2CCCCCC2)nc(N(C)c2ccc(OC(F)(F)F)cc2)n1 (stereo not drawn) [Compound 47, N^2-cycloheptyl-N^4-[(1-ethyl-2-pyrrolidinyl)methyl]-N^6-methyl-N^6-[4-(trifluoromethoxy)phenyl]-1,3,5-triazine-2,4,6-triamine]
Toxicity ([3]; toxic or cause cell death): toxic

CCN1CCCC1CNc1nc(Nc2ccc(OC)c(F)c2)nc(NC2CCCCCCC2)n1 (stereo not drawn) [Compound 54, N^2-cyclooctyl-N^4-[(1-ethyl-2-pyrrolidinyl)methyl]-N^6-(3-fluoro-4-methoxyphenyl)-1,3,5-triazine-2,4,6-triamine]
Toxicity ([3]; toxic or cause cell death): toxic

CCN1CCCC1CNc1nc(Nc2ccc(OC)c(F)c2)nc(N2CCCC3CCCCC32)n1 (stereo not drawn) [Compound 59, N^2-[(1-ethyl-2-pyrrolidinyl)methyl]-N^4-(3-fluoro-4-methoxyphenyl)-N^6-octahydro-1(2H)-quinolinyl-1,3,5-triazine-2,4-diamine]
Toxicity ([3]; toxic or cause cell death): toxic

COc1ccc(Nc2nc(NCCN(C)C)nc(NC3CCCCCC3)n2)cc1F [Compound 93, N^2-cycloheptyl-N^4-[2-(dimethylamino)ethyl]-N^6-(3-fluoro-4-methoxyphenyl)-1,3,5-triazine-2,4,6-triamine]
Toxicity ([3]; toxic or cause cell death): toxic | activity at 10 µM [4]: 6% | pIC50 ([4]; IL6, unit inferred, read-out: IC50 (AGE stimulation of IL6)): 5.47 | activity at 10 µM [5]: 13%

COc1ccc(Nc2nc(OCC3CCCCC3)nc(N(C)C3CCN(C)CC3)n2)cc1Cl [Compound 119, N-(3-Chloro-4-methoxy-phenyl)-6-cyclohexylmethoxy-N′-methyl-N′-(1-methyl-piperidin-4-yl)-[1,3,5]triazine-2,4-diamine]
Toxicity [3]: toxic

CCN1CCCC1CNc1nc(Nc2ccc(OC)c(Cl)c2)nc(NC2CCCCCC2)n1 (stereo not drawn) [Compound 136, N^2-(3-chloro-4-methoxy-phenyl)-N^4-cycloheptyl-N^6-(1-ethyl-pyrrolidin-2-ylmethyl)-1,3,5-triazine-2,4,6-triamine]
Toxicity ([3]; at 3 uM, very toxic): Nothing but celldebris at 3 uM verytoxic
